Data on three molecules can be found in publication PMC5760710, “The evolution of substrate discrimination in macrolide antibiotic resistance enzymes” (Nature Communications, 2018).

Values after ≈ are worked out from the molar mass of the structure shown.

As a reminder, the Km is the substrate concentration at which the rate is half of its maximum.

One experiment concerns the target T1, MphK (Bacillus subtilis, UniProt P42242).
T1 construct: full-length, His-tagged, expressed in E. coli BL21(DE3), Ni-NTA purified
Further details: PK/LDH-coupled continuous assay of macrolide phosphorylation; steady-state kinetics, NADH absorbance. The conditions noted are these: substrate inhibition. On the procedure:
Steady-state kinetics for Mphs were measured using the continuous PK/LDH-coupled assay[27],[32],[36],[71]. Reactions were performed in 96-well plates (Nunc, Thermo Scientific) using Spectramax Plus384 (Molecular Devices) in duplicate. Individual reactions were 100 µL and contained 50 mM HEPES pH 7.5, 40 mM KCl, 10 mM MgCl2, 0.2 mM NADH, 3.5 mM PEP, and 4.8 U PK/LDH (pyruvate kinase/lactate dehydrogenase). […] For determining the Km for macrolides, GTP was maintained at 200 µM and macrolides were varied between 0.49 µM and 1000 µM. Enzyme efficiency varied considerably between substrates, and therefore some enzymes were used at different concentrations depending on the substrate in order to produce a linear range suitable for Km determination. These concentrations were as follows; MphB 140 nM (most substrates), MphB 36 nM (josamycin), MphI 45 nM (descladinose macrolides), MphI 1.44 µM (C3 cladinose macrolides), Azi_1.1 90 nM (all substrates), Ery_1 (all substrates), MphK 680 nM (all substrates), MphIS111R/T166E/P211L 90 nM (descladinose macrolides), MphIS111R/T166E/P211L 1.43 µM (C3 cladinose macrolides), MphIM40A/S111R/T166E 22 nM (descladinose macrolides), MphIM40A/S111R/T166E 430 nM (C3 cladinose macrolides), MphIS111R/T166E 22 nM (descladinose macrolides), MphIS111R/T166E 1.43 µM (C3 cladinose macrolides). Enzyme kinetics experiments were performed at least two independent times. […]

A further experiment has as its target T2, MphB (Escherichia coli, UniProt A0A0H3EUF3).
T2 construct: codon-optimized gene, N-terminal His tag in pET28a, expressed in E. coli BL21(DE3), Ni-NTA purified
The experiment can be described thus: biochemical. On the set-up: PK/LDH-coupled continuous assay of macrolide phosphorylation; steady-state kinetics, NADH absorbance. The conditions noted are these: substrate inhibition. On the procedure:
Steady-state kinetics for Mphs were measured using the continuous PK/LDH-coupled assay[27],[32],[36],[71]. Reactions were performed in 96-well plates (Nunc, Thermo Scientific) using Spectramax Plus384 (Molecular Devices) in duplicate. Individual reactions were 100 µL and contained 50 mM HEPES pH 7.5, 40 mM KCl, 10 mM MgCl2, 0.2 mM NADH, 3.5 mM PEP, and 4.8 U PK/LDH (pyruvate kinase/lactate dehydrogenase). […] For determining the Km for macrolides, GTP was maintained at 200 µM and macrolides were varied between 0.49 µM and 1000 µM. Enzyme efficiency varied considerably between substrates, and therefore some enzymes were used at different concentrations depending on the substrate in order to produce a linear range suitable for Km determination. These concentrations were as follows; MphB 140 nM (most substrates), MphB 36 nM (josamycin), MphI 45 nM (descladinose macrolides), MphI 1.44 µM (C3 cladinose macrolides), Azi_1.1 90 nM (all substrates), Ery_1 (all substrates), MphK 680 nM (all substrates), MphIS111R/T166E/P211L 90 nM (descladinose macrolides), MphIS111R/T166E/P211L 1.43 µM (C3 cladinose macrolides), MphIM40A/S111R/T166E 22 nM (descladinose macrolides), MphIM40A/S111R/T166E 430 nM (C3 cladinose macrolides), MphIS111R/T166E 22 nM (descladinose macrolides), MphIS111R/T166E 1.43 µM (C3 cladinose macrolides). Enzyme kinetics experiments were performed at least two independent times. Steady-state kinetics of Mphs

Experiment [1] deals with T3, E. coli BW25113 ΔbamBΔtolC.
T3 construct: BW25113 ΔbamBΔtolC empty vector pGDP4
The experiment can be described thus: microbe, parasite or virus in culture. Conditions: Escherichia coli, BW25113, 24 h; empty vector. How it is done:
(§1) mphB was codon optimized, synthetized as a gBlock (IDT) and cloned into pET28a with an N-terminal histidine tag. The codon optimized mphB sequence is in Supplementary Table 17. mphI was previously cloned into pET22b[36]. pGDP4 is a derivative of pET28a with the multiple-cloning site under the control of the constitutive lac promoter. mphI was subcloned into pGDP4 using the XbaI and XhoI restriction sites. E. coli was routinely cultured on LB-Lennox (Bioshop) at 37 °C overnight, and either 100 µg mL^−1 ampicillin or 50 µg mL^−1 kanamycin was used for plasmid selection. E. coli TOP10 (Invitrogen) was used for routine cloning experiments and susceptibility testing of mphs cloned into pGDP4. E. coli BL21(DE3) (Stratagene, USA)was used for protein overexpression experiments. E. coli BW25113 ΔbamBΔtolC is an antibiotic hypersensitive, and was used for susceptibility testing of Mphs cloning into pGDP4. Antibiotic susceptibility testing was performed according to the Clinical and Laboratory Standards Institute guidelines[74] for determining minimal inhibitory concentration (MIC) in 96-well plates (Sarstedt, Germany) in duplicate. MIC values were reproducible. A saline suspension of OD600 of 0.1 was made from 2–3 colonies of a fresh overnight, and diluted 1:200 into Mueller-Hinton Broth (BD Biosciences). […] Susceptibility assays were performed at least two independent times.

Another experiment concerns T4, MphI.
T4 construct: full-length, His-tagged in pET22b, expressed in E. coli BL21(DE3), Ni-NTA purified; primers span nt 1-927
The experiment can be described thus: PK/LDH-coupled continuous assay. The format is biochemical, Paenibacillus sp. LC231. The conditions noted are these: 200 uM GTP, 10 mM MgCl2, 40 mM KCl, pH 7.5.

The next experiment has as its target T5, MphH (Brachybacterium faecium, UniProt C7MEP1).
T5 construct: pMCSG53, N-terminal His6 tag and TEV site, crystallized
In words: X-ray crystal structure. The format is binding. The conditions noted are these: macrolide-binding cleft; 5 mM azithromycin.

The subject of experiment [2] is T6, E. coli BW25113 ΔbamBΔtolC (vector).
T6 construct: BW25113 ΔbamBΔtolC, empty vector
The experiment can be described thus: microbe, parasite or virus in culture. On the set-up: CLSI broth microdilution MIC in Mueller-Hinton broth. The conditions noted are these: Escherichia coli, BW25113, 24 h. How it is done: as §1

Consider `CO[C@@H]1[C@@H](O[C@@H]2O[C@H](C)[C@@H](O[C@H]3C[C@@](C)(O)[C@@H](O)[C@H](C)O3)[C@H](N(C)C)[C@H]2O)[C@@H](CC=O)C[C@@H](C)[C@@H](O[C@H]2CC[C@H](N(C)C)[C@@H](C)O2)/C=C/C=C/C[C@@H](C)OC(=O)C[C@H]1O` [Spiramycin], for which the Ki at MphK came out at 750 ± 160 µM; on MphB it was 39 ± 16 µM. Further, the MIC in experiment [1] was found to be 2 µg/mL (≈ 2.37 µM).

`CC[C@H]1OC(=O)[C@H](C)[C@@H](O[C@H]2C[C@@](C)(OC)[C@@H](O)[C@H](C)O2)[C@H](C)[C@@H](O[C@@H]2O[C@H](C)C[C@H](N(C)C)[C@H]2O)[C@](C)(O)C[C@@H](C)CN(C)[C@H](C)[C@@H](O)[C@]1(C)O` [azithromycin]: in the experiment with MphI, the Km was found to be 56 ± 3 µM. Also, the X-ray crystal structure result on MphH was “MphH (Se-Met) azithromycin complex (5UXD)”. Also, in experiment [1], the MIC came out at 0.063 µg/mL (≈ 0.0841 µM).

The molecule `CO[C@@H]1[C@@H](O[C@@H]2O[C@H](C)[C@@H](O[C@H]3C[C@@](C)(O)[C@@H](OC(=O)CC(C)C)[C@H](C)O3)[C@H](N(C)C)[C@H]2O)[C@@H](CC=O)C[C@@H](C)[C@@H](O)/C=C/C=C/C[C@@H](C)OC(=O)C[C@H]1OC(C)=O` [josamycin] registered an MIC in experiment [2] of 2 to 4 µg/mL (≈ 2.42 to 4.83 µM).
